Among the data in US12162857B2, “Antiviral compounds” (priority 2022, dated 2024) are EC50 values, retold here.

Bounds are passed on as bounds.

The test system of the assay is HMPV A2 TN/94-49. The experiment in a line: HMPV antiviral assay: LLC-MK2 cells, ATP-Lite readout. It is filed as cell-based. The note with it: LLC-MK2, 168 h, MOI 0.005, 7 days incubation. As to the method:
In vitro HMPV antiviral activity was evaluated using the clinical isolate A2 strain TN 94-49 and LLC-MK2 cells (ATCC #CCL-7), an immortalized kidney epithelial cell line from Macaca mulatta. Compounds were resuspended in dimethyl sulfoxide (DMSO) at 10 mM, serially diluted and added to a 384-well source plate. Subsequently, the compounds were diluted and transferred onto 384-well assay plates using the Echo-650 automated liquid handling system (Beckman Coulter, Indiana). The test compounds were assessed in duplicate at a top concentration of 2 μM followed by 2.5-fold serial dilutions to give a total of 10 concentration points. DMSO control wells were also included on the assay plates and were either infected or not, acting as positive and negative controls. A2 TN 94-49 virus infections were performed in-suspension with LLC-MK2 cells. The cells were washed twice with PBS and removed from the cell-culture flask with 0.25% trypsin-EDTA (Thermo Fisher Scientific, MA). The trypsin-EDTA was inactivated by resuspending in 2% fetal bovine serum (FBS) and OptiMEM (ThermoFisher Scientific, MA) containing 1% penicillin-streptomycin. Cells were pelleted by centrifuging for 5 minutes at 800 rpm, the supernatant was removed, and cells were re-suspended and washed in PBS plus 100 μg/mL CaCl2). This step was performed twice. Cells were then re-suspended in serum-free (SF)-OptiMEM containing 4 μg/mL TPCK-Trypsin (Sigma Aldrich, MO), 1% penicillin-streptomycin (ThermoFisher Scientific, MA) and 100 μg/mL CaCl2). Cells were counted and seeded at a density of 5,000 cells/well, 12.5 μL/well. Virus infections were done at a multiplicity of infection (MOI) of 0.005 with 12.5 μL added per well. Virus infections were performed in infection media which contained SF-OptiMEM, 100 μg/mL CaCl2) and 1% penicillin-streptomycin. HMPV viral stocks are suspended in infection media+5% glycerol, thus an equal volume of infection media+5% glycerol was added to uninfected wells to equalize the final % glycerol across all wells of the assay plate. The final concentration of TPCK-trypsin was 2 μg/mL. The assay plates were incubated at 37° C., 5% CO2 for 7 days. After 7 days incubation, 12.5 μL of ATP-Lite (PerkinElmer, MA) was added to each well and the raw luminescence values were determined using the Envision 2104 (Perkin Elmer, MA). The average of the raw luminescence values for the cells and virus only positive control wells was subtracted from all conditions tested and the percent cell health was determined by dividing these values by the average of the cells only negative control wells. EC50 values were then calculated by non-linear regression using a four-parameter curve logistic equation. The curve fit model employed was XLFit Dose Response One Site Model 200: y=(A+(B/(1+((x/C)^D)))), where A is the minimum y value, B is the maximum y value, C is the log EC50 value, and D is the slope factor. […] EC50 ranges are as follows: A<1 μM; B>1 μM.
By EC50 is commonly meant the concentration giving half of the maximal effect. The low end stands for a more potent agent, the high end for a less potent agent. `COc1cc(C(=O)NC[C@@](O)(c2cccc(F)c2)c2cc(C(C)(C)O)c(F)c(-c3cccc(Cl)c3Cl)n2)cc2sc(C)nc12` [Example 102] yielded a 50% effective concentration (EC50) of less than 1000 nM.

As for `COc1cc(C(=O)NC[C@@](O)(c2cccc(F)c2)c2cc(C(C)(C)O)c(F)c(-c3ccc(F)c(Cl)c3Cl)n2)cc2cn(C3CC3)nc12` [Example 103], the EC50 is less than 1000 nM. Then `COc1cc(C(=O)NC[C@@](O)(c2cccc(F)c2)c2cc(C(C)(C)O)c(F)c(-c3ccc(F)c(Cl)c3Cl)n2)cc2cn(C(F)F)nc12` [Example 104], with less than 1000 nM; and `CC(C)(O)c1cc([C@@](O)(CNC(=O)c2cc(Cl)c3nn(C4CC4)cc3c2)c2cccc(F)c2)nc(-c2ccc(F)c(Cl)c2Cl)c1F` [Example 105], with less than 1000 nM. As to `COc1cc(C(=O)NC[C@@](O)(c2cccc(F)c2)c2cc(C(C)(C)O)c(F)c(-c3ccc(F)c(Cl)c3Cl)n2)cc2cc(C3CC3)nn12` [Example 106], the EC50 is greater than 1000 nM. The molecule `COc1cc(C(=O)NC[C@@](O)(c2cccc(F)c2)c2cc(C(C)(C)O)c(F)c(-c3ccc(F)c(Cl)c3Cl)n2)cc2sc(C)nc12` [Example 107] returned a half-maximal effective concentration (EC50) of less than 1000 nM.

Molecule `COc1cc(C(=O)NC[C@@](O)(c2cccc(F)c2)c2cc(C(C)(C)O)c(F)c(-c3ccc4c(c3Cl)OC(F)(F)O4)n2)cc2sc(C)nc12` [Example 108] displayed an EC50 of less than 1000 nM. The result for `COc1cc(C(=O)NC[C@@](O)(c2cccc(F)c2)c2cc(C(C)(C)O)c(F)c(-c3ccc4c(c3Cl)OC(F)(F)O4)n2)cc2cn(C3CC3)nc12` [Example 109] reads less than 1000 nM; that for `CC(C)(O)c1cc([C@@](O)(CNC(=O)c2cc(Cl)c3nn(C4CC4)cc3c2)c2cccc(F)c2)nc(-c2ccc3c(c2Cl)OC(F)(F)O3)c1F` [Example 110], greater than 1000 nM; that for `COc1cc(C(=O)NC[C@@](O)(c2cccc(F)c2)c2cc(C(C)(C)O)c(F)c(-c3ccc4c(c3Cl)OC(F)(F)O4)n2)cc2cn(C(F)F)nc12` [Example 111], less than 1000 nM.

In turn, `COc1cc(C(=O)NC[C@@](O)(c2cccc(F)c2)c2cc(C(C)(C)O)c(F)c(-c3ccc4c(c3Cl)OC(F)(F)O4)n2)cc2cc(C3CC3)nn12` [Example 112] had an EC50 of less than 1000 nM. The result for `COc1cc(C(=O)NC[C@](O)(c2cc(C(C)(C)O)c(F)c(-c3cc(Cl)c(F)cc3F)n2)c2cccs2)cc2cn(C3CC3)nc12` [Example 113] reads less than 1000 nM; that for `COc1cc(C(=O)NC[C@](O)(c2cc(C(C)(C)O)c(F)c(-c3cc(Cl)c(F)cc3F)n2)c2cccs2)cc2cn(C(F)F)nc12` [Example 114], less than 1000 nM; that for `COc1cc(C(=O)NC[C@](O)(c2cc(C(C)(C)O)c(F)c(-c3cc(Cl)c(F)cc3F)n2)c2cccs2)cc2sc(C)nc12` [Example 115], less than 1000 nM. Take `CCC(O)(CC)c1cc([C@@](O)(CNC(=O)c2cc(OC)c3nn(C4CC4)cc3c2)c2ccccc2)nc(-c2cc(Cl)c(F)cc2F)c1F` [Example 116]: the EC50 was less than 1000 nM.

With `CCC(O)(CC)c1cc([C@@](O)(CNC(=O)c2cc(OC)c3nn(C(F)F)cc3c2)c2ccccc2)nc(-c2cc(Cl)c(F)cc2F)c1F` [Example 117], the concentration for a half-maximal effect (EC50) is greater than 1000 nM. The result for `COc1cc(C(=O)NC[C@](O)(c2cc(C(C)(C)O)c(F)c(-c3ccc(F)c(Cl)c3F)n2)C2CC2)cc2cn(C(F)F)nc12` [Example 118] reads less than 1000 nM; that for `COc1cc(C(=O)NC[C@](O)(c2cc(C(C)(C)O)c(F)c(-c3ccc(F)c(Cl)c3F)n2)C2CC2)cc2cn(C3CC3)nc12` [Example 119], less than 1000 nM; that for `COc1cc(C(=O)NC[C@](O)(c2cc(C(C)(C)O)c(F)c(-c3ccc(F)c(Cl)c3F)n2)C2CC2)cc2cn(C3(F)CC3)nc12` [Example 120], less than 1000 nM.

Molecule `CC(C)(O)c1cc([C@@](O)(CNC(=O)c2cc(OC3CC3)c3nn(C4CC4)cc3c2)C2CC2)nc(-c2ccc(F)c(Cl)c2F)c1F` [Example 121] displayed an EC50 of less than 1000 nM. The result for `COc1cc(C(=O)NC[C@@](O)(c2ccccc2)c2cc(C(C)(C)O)c(F)c(-c3ccc(F)c(Cl)c3F)n2)cc2cn(C(F)F)nc12` [Example 122] reads less than 1000 nM. For `COc1cc(C(=O)NC[C@@](O)(c2ccccc2)c2cc(C(C)(C)O)c(F)c(-c3ccc(F)c(Cl)c3F)n2)cc2cn(C3(F)CC3)nc12` [Example 124], the half-maximal effective concentration (EC50) was less than 1000 nM. Then `CC(C)(O)c1cc([C@@](O)(CNC(=O)c2cc(OC3CC3)c3nn(C4CC4)cc3c2)c2ccccc2)nc(-c2ccc(F)c(Cl)c2F)c1F` [Example 125], with less than 1000 nM. The result for `COc1cc(C(=O)NC[C@@](O)(c2ccccc2)c2nc(-c3cc(Cl)c(F)cc3F)c(F)c(C(C)(C)O)c2F)cc2cn(C(F)F)nc12` [Example 128] reads less than 1000 nM. The result for `COc1cc(C(=O)NC[C@@](O)(c2ccccc2)c2nc(-c3cc(Cl)c(F)cc3F)c(F)c(C(C)(C)O)c2F)cc2cc(C3CC3)nn12` [Example 129] reads less than 1000 nM; that for `COc1cc(C(=O)NC[C@@](O)(c2ccccc2)c2nc(-c3cc(Cl)c(F)cc3F)c(F)c(C(C)(C)O)c2F)cc2sc(C)nc12` [Example 130], less than 1000 nM.

With `COc1cc(C(=O)NC[C@@](O)(c2ccccc2)c2cc(C(C)(C)O)c(Cl)c(-c3cc(Cl)c(F)cc3F)n2)cc2sc(C)nc12` [Example 131], the 50% effective concentration (EC50) was greater than 1000 nM. In turn, `CC(C)(O)c1cc([C@@](O)(CNC(=O)c2cc(Cl)c3nn(C4CC4)cc3c2)c2ccccc2)nc(-c2cc(Cl)c(F)cc2F)c1Cl` [Example 133] registered a concentration for a half-maximal effect (EC50) greater than 1000 nM. Then `COc1cc(C(=O)NC[C@@](O)(c2ccccc2)c2cc(C(C)(C)O)c(Cl)c(-c3cc(Cl)c(F)cc3F)n2)cc2cn(C(F)F)nc12` [Example 134], with greater than 1000 nM; and `COc1cc(C(=O)NC[C@@](O)(c2ccccc2)c2cc(C(C)(C)O)c(Cl)c(-c3ccc4c(c3Cl)OC(F)(F)O4)n2)cc2sc(C)nc12` [Example 135], with greater than 1000 nM.

In turn, `CC(C)(O)c1cc([C@@](O)(CNC(=O)c2cc(Cl)c3nn(C4CC4)cc3c2)c2ccccc2)nc(-c2ccc3c(c2Cl)OC(F)(F)O3)c1Cl` [Example 137] returned a concentration giving a half-maximal response (EC50) greater than 1000 nM.

In turn, `COc1cc(C(=O)NC[C@@](O)(c2ccccc2)c2cc(C(C)(C)O)c(Cl)c(-c3ccc4c(c3Cl)OC(F)(F)O4)n2)cc2cn(C(F)F)nc12` [Example 138] showed a concentration giving a half-maximal response (EC50) of less than 1000 nM.

`COc1cc(C(=O)NC[C@@](O)(c2ccccc2)c2cc(C(C)(C)O)c(Cl)c(-c3cccc(Cl)c3Cl)n2)cc2sc(C)nc12` [Example 139] had a 50% effective concentration (EC50) of less than 1000 nM.

The molecule `COc1cc(C(=O)NC[C@@](O)(c2ccccc2)c2cc(C(C)(C)O)c(Cl)c(-c3cccc(Cl)c3Cl)n2)cc2cn(C3CC3)nc12` [Example 140] displayed an EC50 greater than 1000 nM. The result for `CC(C)(O)c1cc([C@@](O)(CNC(=O)c2cc(Cl)c3nn(C4CC4)cc3c2)c2ccccc2)nc(-c2cccc(Cl)c2Cl)c1Cl` [Example 141] reads greater than 1000 nM. The result for `COc1cc(C(=O)NC[C@@](O)(c2ccccc2)c2cc(C(C)(C)O)c(Cl)c(-c3cccc(Cl)c3Cl)n2)cc2cn(C(F)F)nc12` [Example 142] reads greater than 1000 nM; that for `COc1cc(C(=O)NC[C@@](O)(c2ccccc2)c2cc(C(C)(C)O)cc(-c3cccc(Cl)c3Cl)n2)cc2sc(C)nc12` [Example 147], less than 1000 nM. Consider `COc1cc(C(=O)NC[C@@](O)(c2ccccc2)c2cc(C(C)(C)O)cc(-c3cccc(Cl)c3Cl)n2)cc2cn(C3CC3)nc12` [Example 148], for which the EC50 was less than 1000 nM. The result for `CC(C)(O)c1cc(-c2cccc(Cl)c2Cl)nc([C@@](O)(CNC(=O)c2cc(Cl)c3nn(C4CC4)cc3c2)c2ccccc2)c1` [Example 149] reads less than 1000 nM; that for `COc1cc(C(=O)NC[C@@](O)(c2ccccc2)c2cc(C(C)(C)O)cc(-c3cccc(Cl)c3Cl)n2)cc2cn(C(F)F)nc12` [Example 150], less than 1000 nM; that for `COc1cc(C(=O)NC[C@@](O)(c2ccccc2)c2cc(C(C)(C)O)cc(-c3ccc(F)c(Cl)c3Cl)n2)cc2sc(C)nc12` [Example 151], less than 1000 nM.

In turn, `COc1cc(C(=O)NC[C@@](O)(c2ccccc2)c2cc(C(C)(C)O)cc(-c3ccc(F)c(Cl)c3Cl)n2)cc2cn(C3CC3)nc12` [Example 152] yielded an EC50 of less than 1000 nM.

Turning to `CC(C)(O)c1cc(-c2ccc(F)c(Cl)c2Cl)nc([C@@](O)(CNC(=O)c2cc(Cl)c3nn(C4CC4)cc3c2)c2ccccc2)c1` [Example 153], the concentration giving a half-maximal response (EC50) was less than 1000 nM.
